Measurements: ChEMBL document CHEMBL1201862, “PubChem BioAssay data set” (2004)
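Cultured in 96-well plates, cells were exposed to test compound for 48 hours across five concentrations. GI50 = concentration required for 50% inhibition of growth.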 The source made the active and inactive calls. Rule as the data show it: active = GI50 up to about 1.1 µM and inactive = higher.

Tests used:
Assay in all cases: DTP human tumour cell line panel, 48 h
[1] = system: RXF 393
[2] = system: CAKI-1
[3] = system: EKVX
[4] = system: DLD-1
[5] = system: NCI-H226
[6] = system: HOP-92
[7] = system: SR
[8] = system: SK-OV-3
[9] = system: 786-0
[10] = system: NCI-H460
[11] = system: SF-539
[12] = system: NCI-H522
[13] = system: A498
[14] = system: A549
[15] = system: SK-MEL-5
[16] = system: OVCAR-4
[17] = system: SN12C
[18] = system: MDA-MB-231
[19] = system: UACC-257
[20] = system: TK-10

Measured: GI50

O=C(CC1(O)C(=O)Nc2c(Cl)ccc(Cl)c21)c1ccco1 (stereo not drawn)
inactive: [1] 19.4 µM | [2] 26.1 µM | [3] 22.6 µM | [4] 39.7 µM | [5] 19.7 µM | [6] 22.3 µM | [7] 4.38 µM | [8] 31.5 µM | [9] 15.5 µM | [10] 20.4 µM | [11] 27.9 µM | [12] 44.3 µM | [13] 30.4 µM | [14] 23 µM | [15] 17.8 µM | [16] 7.06 µM | [17] 17.3 µM | [18] 25.5 µM | [19] 18 µM | [20] > 53 µM

COc1cc2c(c(O)c1O)-c1ccc(OC)c(=O)cc1C(NC(C)=O)CC2 (stereo not drawn)
inactive: [1] 14.6 µM | [2] 78.5 µM | [3] 39 µM | [4] 29.6 µM | [5] 43.2 µM | [6] 4.59 µM | [7] 5.69 µM | [8] 15 µM | [9] 16.6 µM | [10] 25.2 µM | [11] 3.2 µM | [12] 2.42 µM | [13] 34.1 µM | [14] 36.4 µM | [15] 3.58 µM | [16] 27.5 µM | [17] 12.8 µM | [19] 30.1 µM | [20] 64.3 µM

COC(=O)C1C=CCON2CCc3c(n(S(=O)(=O)c4ccccc4)c4ccccc34)C12 (stereo not drawn)
inactive: [1] > 67.5 µM | [2] 57.3 µM | [3] 41.5 µM | [4] 10.7 µM | [5] > 46.2 µM | [6] > 80.7 µM | [7] 34.1 µM | [8] > 61.9 µM | [9] > 87.1 µM | [10] 52.6 µM | [11] > 12.8 µM | [12] 26.9 µM | [13] > 100 µM | [14] 50.1 µM | [15] 34.4 µM | [16] > 31.6 µM | [17] 60 µM | [19] 50.1 µM | [20] > 78.3 µM
